Patent US4256746A, “Dechloromaytansinoids, their pharmaceutical compositions and method of use” (priority 1978, dated 1981)
In brackets after ≈: the same amount, converted by molar mass. Like-named read-outs stand apart in the source and are kept apart here.

What was measured:
Tetrahymena pyriformis W = assay: Antiprotozoal activity, growth inhibition by the serial dilution method; type: cell-based
Method: Antiprotozoal activity of compound (I) was assayed with Tetrahymena pyriformis W as the test organism and a medium composed of 20 g tryptose-peptone (Difco Co.), 1 g yeast extract, 2 g glucose, 1000 ml distilled water, 10 ml 1 M phosphate buffer (pH 7.0) as the assay medium. The microorganism was incubated at 28° C. for 44 to 48 hours and the growth inhibitory activity of compound (I) was assayed by the serial dilution method.

leukemia P-388 = assay: Antitumor activity, life span prolongation of mice transplanted intraperitoneally with leukemia P-388 tumor cells; type: in vivo; conditions: i.p. once daily for 9 consecutive days
Method: (§1) Therapeutic tests were carried out in mice according to NCI-protocols 1,200 and 1,300, Cancer Chemother, Reports, Part 3, 1972, Vol. 3, No. 2, in which leukemia P-388 and melanoma B-16 tumor cells had been intraperitoneally transplanted, compound (I) being administered intraperitoneally once daily for 9 consecutive days.

melanoma B-16 = assay: Antitumor activity, life span prolongation of mice transplanted intraperitoneally with melanoma B-16 tumor cells; type: in vivo; conditions: i.p. once daily for 9 consecutive days
Method: as §1

[1] = Tetrahymena pyriformis, pH 7, read-out: Antiprotozoal activity MIC (minimal inhibitory concentration)

Row | SMILES | MIC (Tetrahymena pyriformis W; Tetrahymena pyriformis W, 28° C., 44 to 48 hours, serial dilution method, pH 7.0, read-out: Antiprotozoal activity MIC (minimal inhibitory concentration)) | MIC (Tetrahymena pyriformis W; [1]) | Antitumor activities P-388 (T/C %) (leukemia P-388; 50 μg/kg) | Antitumor activities P-388 (T/C %) (leukemia P-388; 100 μg/kg) | Antitumor activities P-388 (T/C %) (leukemia P-388; 200 μg/kg) | Antitumor activities P-388 (T/C %) (leukemia P-388; 400 μg/kg) | Antitumor activities B-16 (T/C %) (melanoma B-16; 100 μg/kg) | Antitumor activities B-16 (T/C %) (melanoma B-16; 200 μg/kg) | Antitumor activities B-16 (T/C %) (melanoma B-16; 400 μg/kg) | Antitumor activities B-16 (T/C %) (melanoma B-16; 800 μg/kg)
1 | COc1cc2cc(c1)N(C)C(=O)CC(OC(=O)Cc1ccccc1)C1(C)OC1C(C)C1CC(O)(NC(=O)O1)C(OC)C=CC=C(C)C2 (stereo not shown) [Dechloromaytansinol 3-phenylacetate, dechloromaytansinol 3-phenylacetate] | 2 µg/mL (≈ 3.08 µM) | – | – | – | – | – | – | – | – | –
2 | COc1cc2cc(c1)N(C)C(=O)CC(OC(=O)C1CCCCC1)C1(C)OC1C(C)C1CC(O)(NC(=O)O1)C(OC)C=CC=C(C)C2 (stereo not shown) [dechloromaytansinol 3-cyclohexanecarboxylate] | – | 4 µg/mL (≈ 6.24 µM) | – | – | – | – | – | – | – | –
3 | COc1cc2cc(c1)N(C)C(=O)CC(OC(=O)C(C)C)C1(C)OC1C(C)C1CC(O)(NC(=O)O1)C(OC)C=CC=C(C)C2 (stereo not shown) [Dechloromaytansinol 3-isobutyrate, dechloromaytansinol 3-isobutyrate] | – | – | 168 T/C % | 189 T/C % | 193 T/C % | 224 T/C % | 150 T/C % | 152 T/C % | 174 T/C % | 214 T/C %
4 | COc1cc2cc(c1)N(C)C(=O)CC(OC(=O)[C@H](C)N(C)C(C)=O)C1(C)OC1C(C)C1CC(O)(NC(=O)O1)C(OC)C=CC=C(C)C2 (stereo partly shown) [Dechloromaytansine, dechloromaytansine] | – | – | 158 T/C % | 165 T/C % | 175 T/C % | 189 T/C % | 171 T/C % | 152 T/C % | 179 T/C % | 190 T/C %
5 | COc1cc2cc(c1)N(C)C(=O)CC(OC(=O)CCl)C1(C)OC1C(C)C1CC(O)(NC(=O)O1)C(OC)C=CC=C(C)C2 (stereo not shown) [Dechloromaytansinol 3-chloroacetate, dechloromaytansinol 3-chloroacetate] | – | ≥ 4 µg/mL | – | – | – | – | – | – | – | –
